Calls of active or inactive are those of the source. No rule for the calls is given here.
Tested on: CCRIS mutagenicity, Ames/micronucleus/aberration tests
Test: CCRIS mutagenicity studies
[1] = Test System: AMES SALMONELLA TYPHIMURIUM, Strain/Indicator: TA98, Metabolic Activation: NONE, Method: STANDARD PLATE
[2] = Test System: AMES SALMONELLA TYPHIMURIUM, Strain/Indicator: TA98, Metabolic Activation: RAT, LIVER, S-9, AROCLOR 1254, Method: STANDARD PLATE
[3] = Test System: AMES SALMONELLA TYPHIMURIUM, Strain/Indicator: TA100, Metabolic Activation: NONE, Method: STANDARD PLATE
[4] = Test System: AMES SALMONELLA TYPHIMURIUM, Strain/Indicator: TA100, Metabolic Activation: RAT, LIVER, S-9, AROCLOR 1254, Method: STANDARD PLATE
[5] = Test System: AMES SALMONELLA TYPHIMURIUM, Strain/Indicator: TA1535, Metabolic Activation: NONE, Method: STANDARD PLATE
[6] = Test System: AMES SALMONELLA TYPHIMURIUM, Strain/Indicator: TA1535, Metabolic Activation: RAT, LIVER, S-9, AROCLOR 1254, Method: STANDARD PLATE
[7] = Test System: AMES SALMONELLA TYPHIMURIUM, Strain/Indicator: TA1537, Metabolic Activation: NONE, Method: STANDARD PLATE
[8] = Test System: AMES SALMONELLA TYPHIMURIUM, Strain/Indicator: TA1537, Metabolic Activation: RAT, LIVER, S-9, AROCLOR 1254, Method: STANDARD PLATE

SMILES	mutagenic call [1]	mutagenic call [2]	mutagenic call [3]	mutagenic call [4]	mutagenic call [5]	mutagenic call [6]	mutagenic call [7]	mutagenic call [8]	other results
O=C(/C=C/c1ccc(O)c(O)c1)O[C@@H]1C[C@](O)(C(=O)O)C[C@@H](O)[C@H]1O	inactive; negative	inactive; negative	inactive; negative	inactive; negative	inactive; negative	inactive; negative	inactive; negative	inactive; negative	mutagenic call (Test System: AMES SALMONELLA TYPHIMURIUM, Strain/Indicator: TA98, Metabolic Activation: HAMSTER, LIVER, S-9, AROCLOR 1254, Method: STANDARD PLATE): inactive; negative; mutagenic call (Test System: AMES SALMONELLA TYPHIMURIUM, Strain/Indicator: TA100, Metabolic Activation: HAMSTER, LIVER, S-9, AROCLOR 1254, Method: STANDARD PLATE): inactive; negative; mutagenic call (Test System: AMES SALMONELLA TYPHIMURIUM, Strain/Indicator: TA1535, Metabolic Activation: HAMSTER, LIVER, S-9, AROCLOR 1254, Method: STANDARD PLATE): inactive; negative; mutagenic call (Test System: AMES SALMONELLA TYPHIMURIUM, Strain/Indicator: TA1537, Metabolic Activation: HAMSTER, LIVER, S-9, AROCLOR 1254, Method: STANDARD PLATE): inactive; negative; mutagenic call (Test System: AMES SALMONELLA TYPHIMURIUM, Strain/Indicator: TA1538, Metabolic Activation: HAMSTER, LIVER, S-9, AROCLOR 1254, Method: STANDARD PLATE): inactive; negative; mutagenic call (Test System: AMES SALMONELLA TYPHIMURIUM, Strain/Indicator: TA1538, Metabolic Activation: NONE, Method: STANDARD PLATE): inactive; negative; mutagenic call (Test System: AMES SALMONELLA TYPHIMURIUM, Strain/Indicator: TA1538, Metabolic Activation: RAT, LIVER, S-9, AROCLOR 1254, Method: STANDARD PLATE): inactive; negative; mutagenic call (Test System: MOUSE LYMPHOMA, Strain/Indicator: L5178Y (TK+/TK-), Metabolic Activation: NONE, Method: SUSPENSION/PLATE): inactive; negative. reevaluation of results: negative; mutagenic call (Test System: MOUSE LYMPHOMA, Strain/Indicator: L5178Y (TK+/TK-), Metabolic Activation: RAT, LIVER, S-9, AROCLOR 1254, Method: SUSPENSION/PLATE): active; positive. reevaluation of results: positive
c1ccc2c(c1)Oc1ccccc1O2									mutagenic call (Test System: AMES SALMONELLA TYPHIMURIUM, Strain/Indicator: TA98(1,8-DNP6), Metabolic Activation: RAT, LIVER, S-9, PCB, Method: SUSPENSION): inactive; negative; mutagenic call (Test System: AMES SALMONELLA TYPHIMURIUM, Strain/Indicator: TA98(NR), Metabolic Activation: RAT, LIVER, S-9, PCB, Method: SUSPENSION): inactive; negative; mutagenic call (Test System: AMES SALMONELLA TYPHIMURIUM, Strain/Indicator: TA98, Metabolic Activation: NONE, Method: SUSPENSION): inactive; negative; mutagenic call (Test System: AMES SALMONELLA TYPHIMURIUM, Strain/Indicator: TA98, Metabolic Activation: RAT, LIVER, S-9, PCB, Method: SUSPENSION): inactive; negative; mutagenic call (Test System: AMES SALMONELLA TYPHIMURIUM, Strain/Indicator: TA100, Metabolic Activation: NONE, Method: SUSPENSION): inactive; negative; mutagenic call (Test System: AMES SALMONELLA TYPHIMURIUM, Strain/Indicator: TA100, Metabolic Activation: RAT, LIVER, S-9, PCB, Method: SUSPENSION): inactive; negative
CCS(=O)(=O)n1ncc(Cl)c(Cl)c1=O	inactive; negative	inactive; negative	active; positive	active; positive	inactive; negative	inactive; negative	inactive; negative	inactive; negative	
